According to US20260125679A1, “FINE-TUNING INFLAMMATION BY ALTERING 3'UTR LENGTH” (priority 2023, published 2026):
Numbered stars: 1 amine (or outer) side, 2 acyl side, 3 side chain; on linkers, the order of the positions; unused ones are H or OH. Bridge positions count the residues as written; N and C are the ends. Square brackets hold non-standard residues; d marks the D form. Peptide text beside a SMILES is read from it. I, II: the chains in the order shown. Actinocin(9to1) = Cc1c2oc3c(C)ccc(C(=O)[*:1])c3nc-2c(C(=O)[*:2])c(N)c1=O; NMeV = CN[C@H](C(=O)O)C(C)C; Sar = CNCC(=O)O

Assays:
[1] = tested on: dsRNA in neurons, hESCs, HEK-293T and HeLa cells; test: J2 staining of dsRNA after RNA polymerase inhibitor treatment; format: cell-based, human
Protocol: (§1) We transiently treated neurons with different RNA polymerase inhibitors for 12 hours prior to J2 staining to determine if RNA polymerase II (POLII) or mitochondrial RNA polymerase (POLRMT) give rise to neuronal dsRNA. The following inhibitors were used: actinomycin D (ActD), which inhibits both POLII and POLRMT (16); α-amanitin, a POLII inhibitor; and IMT1, a POLRMT-specific inhibitor (25). […] By quantifying depletion of dsRNA upon single treatments with α-amanitin or IMT1 treatment, we calculated the proportional contribution of POLII- or POLRMT-derived dsRNAs, respectively. We applied this analysis to various cell types. In HeLa cells, roughly 90% of dsRNA was derived from POLRMT. This is consistent with a prior study that concluded that roughly 95% of dsRNA in HeLa cells is located in mitochondria (16), validating our analysis. In both hESCs and HEK-293T cells, POLRMT and POLII contribute to roughly 70% and 30% of dsRNA, respectively. Conversely, in neurons, POLRMT and POLII transcripts contribute to 40% and 60% of dsRNA, respectively. […] In summary, mtRNA is the major component of dsRNA in HeLa, HEK-293T, and hESCs. However, in neurons, POLII-derived transcripts, presumably mRNAs, contribute to the bulk of the neuronal dsRNA load.
(§2) For treatment with various polymerase inhibitors, cells were treated for 12 hours prior to harvest with either ActD (10 ug/mL, Sigma), α-amanitin (25 ug/mL, Sigma), or IMT1 (1 uM, MedChemExpress).
Cells grown on glass coverslips were washed with PBS and fixed using 4% paraformaldehyde for 20 minutes at 4° C. Samples were then blocked and permeabilized in PBTG (PBS, 1% BSA, 0.1% Triton-X100, 10% goat serum) for 1 hour at room temperature. Primary antibodies were diluted in PBTG and stained overnight at 4° C. Secondary antibodies (either goat anti-mouse IgG Alexa Fluor 488 or goat anti-rabbit IgG Alexa Fluor 594, Invitrogen (A11001 and A11012)) and DAPI were diluted in PBTG and stained for 1 hour at room temperature prior to mounting. Samples were imaged on an LSM-710 confocal microscope.
Images were processed and analyzed using ImageJ. MFI of individual cells was determined by tracing cell outlines. MFI data depicts 12 individual cells taken from at least 3 independent images. For colocalization analysis, the JACop plugin was used to measure MFI of 4 independent images.

neurons and hESCs = test: Specificity of RNA polymerase inhibitors (mRNA and mtRNA levels); format: cell-based, human; settings: 12 hours treatment
Protocol: as §1, §2
RNA was extracted directly from cell samples using the Direct-zol RNA Miniprep kit (Zymo Research). cDNA conversion was completed using the ProtoScript II First Strand cDNA Synthesis kit (New England Biolabs). PowerUp SYBR Green (Thermo Fisher Scientific) and QuantStudio 3 Real-Time PCR System were used for qRT-PCR, and all primers are listed in Table S1. RPS11 or 18S rRNA were used as a housekeeping gene for normalization.

Compound	proportion of dsRNA derived from POLII (depletion of dsRNA upon α-amanitin) ([1]; hESCs and HEK-293T cells) [%]	proportion of dsRNA derived from POLII (depletion of dsRNA upon α-amanitin) ([1]; neurons) [%]	mRNA levels (neurons and hESCs)	dsRNA signal (J2) ([1]; neurons and hESCs, 12 hours treatment)	mtRNA levels (neurons and hESCs)	proportion of dsRNA derived from POLRMT (depletion of dsRNA upon IMT1) ([1]; HeLa cells)	proportion of dsRNA derived from POLRMT (depletion of dsRNA upon IMT1) ([1]; hESCs and HEK-293T cells)	proportion of dsRNA derived from POLRMT (depletion of dsRNA upon IMT1) ([1]; neurons) [%]
CC[C@H](C)[C@@H]1NC(=O)CNC(=O)[C@@H]2Cc3c([nH]c4cc(O)ccc34)[S+]([O-])C[C@@H](NC(=O)CNC1=O)C(=O)N[C@@H](CC(N)=O)C(=O)N1C[C@H](O)C[C@H]1C(=O)N[C@@H]([C@@H](C)[C@@H](O)CO)C(=O)N2 (stereo in doubt) [α-amanitin]	~30	60	down-regulated					
Cc1c2oc3c(C)ccc(C(=O)N[C@@H]4C(=O)N[C@H](C(C)C)C(=O)N5CCC[C@H]5C(=O)N(C)CC(=O)N(C)[C@@H](C(C)C)C(=O)O[C@@H]4C)c3nc-2c(C(=O)N[C@@H]2C(=O)N[C@H](C(C)C)C(=O)N3CCC[C@H]3C(=O)N(C)CC(=O)N(C)[C@@H](C(C)C)C(=O)O[C@@H]2C)c(N)c1=O [ActD, actinomycin D] (I: T[dV]P[Sar][NMeV] / II: T[dV]P[Sar][NMeV]; ester I:1-I:C, II:1-II:C; linker I:N-II:N via Actinocin(9to1))			down-regulated	abrogate almost all dsRNA signal	down-regulated			
Cc1ccccc1-c1cc(=O)oc2cc(OC(C)C(=O)N(C)C)ccc12 (stereo not shown) [IMT1]					down-regulated	roughly 90%	roughly 70%	40
